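Results reflect a 48-hour exposure of cells in 96-well plates to compound at five concentrations. The concentration for 50% growth inhibition is given as GI50.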 The source made the active and inactive calls. No stated cut-off is given here; in the data, active = GI50 up to about 1.1 µM and inactive = higher.
How the values were obtained:
Test in all cases: NCI tumour cell line growth inhibition, 48 h
EKVX = tested on: EKVX
HT-29 = tested on: HT-29
SN12C = tested on: SN12C
OVCAR-3 = tested on: OVCAR-3
TK-10 = tested on: TK-10
OVCAR-5 = tested on: OVCAR-5
RXF 393 = tested on: RXF 393
HL-60 = tested on: HL-60
HCT-15 = tested on: HCT-15
SK-OV-3 = tested on: SK-OV-3
CCRF-CEM = tested on: CCRF-CEM
SR = tested on: SR
RPMI-8226 = tested on: RPMI-8226
A498 = tested on: A498
NCI-H522 = tested on: NCI-H522
HOP-92 = tested on: HOP-92

Compound | GI50 (EKVX) | GI50 (HT-29) | GI50 (SN12C) | GI50 (OVCAR-3) | GI50 (TK-10) | GI50 (OVCAR-5) | GI50 (RXF 393) | GI50 (HL-60) | GI50 (HCT-15) | GI50 (SK-OV-3) | GI50 (CCRF-CEM) | GI50 (SR) | GI50 (RPMI-8226) | GI50 (A498) | GI50 (NCI-H522) | GI50 (HOP-92)
COC(=O)c1ccc(/N=N/N(C)CO)cc1 | > 100 µM (inactive) | > 100 µM (inactive) | > 100 µM (inactive) | 91.4 µM (inactive) | > 100 µM (inactive) | > 100 µM (inactive) | 59.6 µM (inactive) | > 100 µM (inactive) | > 100 µM | 40.5 µM (inactive) | > 100 µM (inactive) | 44.3 µM (inactive) | > 100 µM (inactive) | 51.8 µM (inactive) | > 100 µM (inactive) | –
COc1cc2c(cc1OC)C(Cl)C(c1ccc(Cl)cc1)=C2Cl (stereo unspecified) | 9.86 µM (inactive) | 13.3 µM (inactive) | 17.5 µM (inactive) | 16.5 µM (inactive) | 19.6 µM (inactive) | – | – | 11.4 µM (inactive) | 14.5 µM | 28.5 µM (inactive) | 6.15 µM (inactive) | – | 9.02 µM (inactive) | 18.6 µM (inactive) | 12 µM (inactive) | 12.6 µM (inactive)
O=C(CCc1nnc(S)[nH]1)Nc1cccc(C(F)(F)F)c1 | > 100 µM (inactive) | > 100 µM (inactive) | > 100 µM (inactive) | > 100 µM (inactive) | > 100 µM (inactive) | > 100 µM (inactive) | > 100 µM (inactive) | > 100 µM (inactive) | > 100 µM | > 100 µM (inactive) | > 100 µM (inactive) | > 100 µM (inactive) | > 100 µM (inactive) | > 100 µM (inactive) | 35.2 µM (inactive) | > 100 µM (inactive)
Cc1nc(=O)n2c(c1C(=O)Nc1ccc(Cl)cc1)NCCC2 | > 100 µM (inactive) | > 100 µM (inactive) | > 100 µM (inactive) | > 100 µM (inactive) | > 100 µM (inactive) | > 100 µM (inactive) | > 100 µM (inactive) | > 100 µM (inactive) | > 100 µM | > 100 µM (inactive) | > 100 µM (inactive) | > 100 µM (inactive) | > 100 µM (inactive) | – | 2.97 µM (inactive) | > 100 µM (inactive)
CCCCc1c2c(nc3c1CCCC3=O)CCCC2 | > 100 µM (inactive) | > 100 µM (inactive) | > 100 µM (inactive) | > 100 µM (inactive) | – | – | – | > 100 µM (inactive) | > 100 µM | > 100 µM (inactive) | > 100 µM (inactive) | 41.4 µM (inactive) | > 100 µM (inactive) | – | > 100 µM (inactive) | –
C=C(C(=C)P(=S)(c1ccccc1)c1ccccc1)P(=S)(c1ccccc1)c1ccccc1 | > 100 µM (inactive) | > 100 µM (inactive) | > 100 µM (inactive) | > 100 µM (inactive) | > 100 µM (inactive) | > 100 µM (inactive) | > 100 µM (inactive) | 7.33 µM (inactive) | > 100 µM | > 100 µM (inactive) | > 100 µM (inactive) | – | 8.75 µM (inactive) | > 100 µM (inactive) | > 100 µM (inactive) | 2.52 µM (inactive)
Cc1cc(NS(=O)(=O)c2ccc(NC(=O)c3cccc4cc5ccccc5nc34)cc2)no1 | 29.6 µM (inactive) | 30 µM (inactive) | 18 µM (inactive) | 22.3 µM (inactive) | 35.9 µM (inactive) | 23.2 µM (inactive) | 14.8 µM (inactive) | – | 14.7 µM | 39.6 µM (inactive) | 16 µM (inactive) | – | 16.1 µM (inactive) | 16.7 µM (inactive) | 15.5 µM (inactive) | –
COC(c1cccc(C(O)(C(F)(F)F)C(F)(F)F)c1)(C(F)(F)F)C(F)(F)F | 17.9 µM (inactive) | 17.5 µM (inactive) | 18.3 µM (inactive) | 23.4 µM (inactive) | 22.1 µM (inactive) | 18.4 µM (inactive) | 20.4 µM (inactive) | – | 19.1 µM | 20.1 µM (inactive) | – | 32.1 µM (inactive) | – | 20.1 µM (inactive) | 13.5 µM (inactive) | –
O=C1C(Cl)N(c2cccc([N+](=O)[O-])c2)C1c1c[nH]c2ccccc12 (stereo unspecified) | 28.4 µM (inactive) | 17.1 µM (inactive) | 28.6 µM (inactive) | 20.5 µM (inactive) | 20.4 µM (inactive) | 11.9 µM (inactive) | 12.9 µM (inactive) | 22.3 µM (inactive) | – | 11.1 µM (inactive) | 4.61 µM (inactive) | 10.7 µM (inactive) | 16.9 µM (inactive) | – | 16 µM (inactive) | 19 µM (inactive)
O=C1NP23(OCCO2)Oc2ccccc2C3(C(F)(F)F)O1 (stereo unspecified) | – | > 100 µM (inactive) | > 100 µM (inactive) | > 100 µM (inactive) | > 100 µM (inactive) | – | – | > 100 µM (inactive) | 72.3 µM | > 100 µM (inactive) | > 100 µM (inactive) | – | – | – | > 100 µM (inactive) | –
CC(=O)Nc1ccc(C(=O)NN2C(=O)C(Cl)C2c2cc(Br)cc(Br)c2O)cc1 (stereo unspecified) | > 100 µM (inactive) | – | > 100 µM (inactive) | > 100 µM (inactive) | – | > 100 µM (inactive) | – | > 100 µM (inactive) | > 100 µM | > 100 µM (inactive) | > 100 µM (inactive) | > 100 µM (inactive) | > 100 µM (inactive) | > 100 µM (inactive) | > 100 µM (inactive) | > 100 µM (inactive)
CC(O)/C=C/C(CCC(C)CO)C(C)C (stereo unspecified) | > 100 µM (inactive) | > 100 µM (inactive) | > 100 µM (inactive) | > 100 µM (inactive) | > 100 µM (inactive) | > 100 µM (inactive) | > 100 µM (inactive) | > 100 µM (inactive) | > 100 µM | > 100 µM (inactive) | > 100 µM (inactive) | – | > 100 µM (inactive) | > 100 µM (inactive) | > 100 µM (inactive) | > 100 µM (inactive)
O=C(CSSCC(=O)Nc1ccc(Br)cc1)Nc1ccc(Br)cc1 | 26.5 µM (inactive) | 20.9 µM (inactive) | 16.3 µM (inactive) | 18.1 µM (inactive) | 16.7 µM (inactive) | 18.2 µM (inactive) | 18.7 µM (inactive) | 16.9 µM (inactive) | 19.6 µM | 25.4 µM (inactive) | – | 10.3 µM (inactive) | 21.6 µM (inactive) | 19.6 µM (inactive) | 12.2 µM (inactive) | 19 µM (inactive)
Cc1cc(C)n(CCNCCn2nc(C)cc2C)n1 | > 100 µM (inactive) | – | > 100 µM (inactive) | > 100 µM (inactive) | > 100 µM (inactive) | – | > 100 µM (inactive) | > 100 µM (inactive) | – | > 100 µM (inactive) | > 100 µM (inactive) | > 100 µM (inactive) | > 100 µM (inactive) | > 100 µM (inactive) | > 100 µM (inactive) | > 100 µM (inactive)
CC(=O)c1ccc(NC(=O)C(=O)C(C#N)CC(C)(C)C=O)cc1 (stereo unspecified) | > 100 µM (inactive) | > 100 µM (inactive) | > 100 µM (inactive) | > 100 µM (inactive) | > 100 µM (inactive) | > 100 µM (inactive) | – | > 100 µM (inactive) | > 100 µM | > 100 µM (inactive) | > 100 µM (inactive) | > 100 µM (inactive) | > 100 µM (inactive) | > 100 µM (inactive) | > 100 µM (inactive) | 68.4 µM (inactive)
CCOC(=O)C(N=C(c1ccccc1)c1ccccc1)N(C(=O)OC(C)(C)C)C(=O)OC(C)(C)C (stereo unspecified) | > 100 µM (inactive) | > 100 µM (inactive) | > 100 µM (inactive) | > 100 µM (inactive) | > 100 µM (inactive) | > 100 µM (inactive) | 19.8 µM (inactive) | – | > 100 µM | > 100 µM (inactive) | – | 69.3 µM (inactive) | 64.3 µM (inactive) | – | > 100 µM (inactive) | 7.45 µM (inactive)
Cc1ccccc1NC(=O)CSc1nnc(-c2ccc(/N=C\c3ccc(Cl)cc3)cc2)o1 | > 100 µM (inactive) | > 100 µM (inactive) | > 100 µM (inactive) | – | > 100 µM (inactive) | – | > 100 µM (inactive) | > 100 µM (inactive) | > 100 µM | > 100 µM (inactive) | > 100 µM (inactive) | > 100 µM (inactive) | > 100 µM (inactive) | – | – | –
CCC(COC(=O)CC[C@@H](NC(=O)C(C)NC(=O)C(C)OC1C(O)C(CO)OC(OCc2ccccc2)C1NC(C)=O)C(N)=O)NC1c2ccccc2Nc2cccc([N+](=O)[O-])c21 (stereo partly specified) | > 100 µM (inactive) | > 100 µM (inactive) | > 100 µM (inactive) | 80.2 µM (inactive) | > 100 µM (inactive) | > 100 µM (inactive) | 37.4 µM (inactive) | > 100 µM (inactive) | > 100 µM | > 100 µM (inactive) | > 100 µM (inactive) | > 100 µM (inactive) | > 100 µM (inactive) | – | > 100 µM (inactive) | > 100 µM (inactive)
CCCCC#C[I+]c1ccccc1 | 15.6 µM (inactive) | 15.9 µM (inactive) | 14.5 µM (inactive) | 16 µM (inactive) | 15.1 µM (inactive) | 14.8 µM (inactive) | 20.1 µM (inactive) | 15.4 µM (inactive) | 8.28 µM | 16.4 µM (inactive) | 4.97 µM (inactive) | 15.1 µM (inactive) | – | 31 µM (inactive) | 3.53 µM (inactive) | 11.7 µM (inactive)
Cn1c(=O)nc2n(-c3ccc(Br)cc3)c3ccccc3nc-2c1=O | 1.94 µM (inactive) | 2.29 µM (inactive) | 4.97 µM (inactive) | 2.48 µM (inactive) | 8.93 µM (inactive) | 13.6 µM (inactive) | 12.3 µM (inactive) | – | 3.55 µM | 27.8 µM (inactive) | 3.81 µM (inactive) | – | 3.16 µM (inactive) | 11.2 µM (inactive) | 4.39 µM (inactive) | –

From ChEMBL document CHEMBL1201862, “PubChem BioAssay data set” (2004)
